Results as given in patent publication US20240115574A1, “INHIBITION OF nSMase FOR THE TREATMENT OF HUMAN IMMUNODEFICIENCY VIRUS INFECTION” (The Johns Hopkins University, priority 2018, published 2024).
pIC50: −log10 of the molar value. Like-named read-outs stand apart in the source and are kept apart here.

Assays:
[1] = target: nSMase2 (Homo sapiens (Human), UniProt Q9NY59); experiment: nSMase2 inhibition (Tables 1A, 1B); assay type: biochemical
[2] = system: HIV in U1 cells; experiment: HIV replication (p24) in TNF-α-stimulated U1 cells; assay type: cell-based; details: TNF-α 500 ng/mL, 0.1 μM-10 μM, 12 h, 24 h, 48 h
Experimental: (§1) Quantification of HIV replication (p24 levels) in medium (top) and cell viability (bottom) of H9 cells (FIG. 4A), U1 cells (FIG. 4B), and human primary CD4+ cells (FIG. 4C) treated with nSMase2 inhibitor, MS882 (31). […] HIV replication and cell viability were measured at 12 h, 24 h, and 48 h after treatment of MS882 (31). Data are mean±S.D of n=3 per independent experiments/condition. *=p<0.05; **=p<0.01; ***=p<0.001 compared to uninfected control (H9 cells, primary human CD4+ cells), or non-TNFα-induced control (U1 cells). #=p<0.05; ##=p<0.01; ###=p<0.001 compared to HIV-infected or TNF-α-induced cells. One-Way ANOVA with Tukey post-hoc comparisons;

[3] = system: HIV Rf in H9 cells; experiment: HIV replication in HIV-infected H9 cells, P24 ELISA of culture supernatants; assay type: cell-based; details: H9 cells infected with HIV, dose response
Experimental: Controls included no-treatment and vehicle. Cell viability and P24 were measured every 24 h for 4 days.

[4] = system: H9 cells and U1 cells; experiment: Electron microscopy of HIV-infected H9 cells and TNF-α-stimulated U1 cells; assay type: cell-based; details: 10 μM for 6 h
Experimental: Representative electron microscope images of H9 cells (FIG. 6A) and U1 cells (FIG. 6B) treated with MS882 (31) (10 μM) for 6 h following HIV infection (H9 cells) or TNF-α stimulation (U1 cells). […] Scale bar, 1 μm;

[5] = system: HIV1-Ada; experiment: HIV-infected humanized mice (hu-NSG), viral load and cell populations; assay type: in vivo
Experimental: Humanization of NSG mice was determined 20 weeks following transplantation by flow cytometry (Miltenyl Biotec) using human specific antibodies directed against hCD45-APC (Leukocytes; Thermo Fisher), hCD3-PE (T cells; Biolegend), hCD14-PE/Cy7 (Macrophage; Biolegend), hCD19-BV421 (B cells; Biolegend). Percent humanization was calculated as a ratio for each of the human antibodies to a mouse specific antibody directed against mCD45-FITC (eBioscience). Mice>5% humanization (in each cell category) were included for experiments.
Reaction included a non-template control, non-enzyme control and sample was analyzed on an Applied Biosystem 7300 Real-Time PCR system (Life Technology). […] The dissociation stage was 95° C. for 15 sec, 60° C. for 1 min and 95° C. for 15 sec.
Drugs were reconstituted in 5% DMSO, 5% Tween-80 and 90% saline. Control mice injected with vehicle consisting of 5% DMSO, 5% Tween-80 in saline.

[6] = system: ceramides; experiment: Plasma ceramides in HIV-infected humanized mice; assay type: in vivo; details: 10 mg/Kg for 6 weeks
Experimental: Quantifications of multiple ceramides in plasma from uninfected humanized mice, HIV-infected humanized mice administered MS882 (31) (10 mg/Kg) or vehicle for 6 weeks. Data are mean±S.D of n=4-6 per group. *=p<0.05; **=p<0.01; ***=p<0.001 compared to uninfected humanized mice #=p<0.05; ##=p<0.01 compared to HIV-infected mice administered vehicle. One-Way ANOVA with Tukey post-hoc comparisons; Experimental drugs were delivered intraperitoneally at a dose of 10 mg/kg once daily beginning 5 weeks after HIV infection for a duration of 6 weeks. Drugs were reconstituted in 5% DMSO, 5% Tween-80 and 90% saline. Control mice injected with vehicle consisting of 5% DMSO, 5% Tween-80 in saline.

[7] = system: HIV-MN in primary human CD4+ cells; experiment: HIV replication (p24) in human primary CD4+ cells; assay type: cell-based; details: HIV-MN 200 ng/mL, 0.1 μM-10 μM, 12 h, 24 h, 48 h
Experimental: as §1

[8] = system: HIV-1 Tat-regulated firefly luciferase reporter in TZM/Bl cells; details: dose response
[9] = nSMase2 inhibitors of formula (I), Table 1A, read-out: IC50
[10] = nSMase2, compounds of formula (II), Table 1B, read-out: Activity* (IC50 category)
[11] = daily administration for 6 weeks

Sequence of nSMase2 (Q9NY59 whole entry, species assumed): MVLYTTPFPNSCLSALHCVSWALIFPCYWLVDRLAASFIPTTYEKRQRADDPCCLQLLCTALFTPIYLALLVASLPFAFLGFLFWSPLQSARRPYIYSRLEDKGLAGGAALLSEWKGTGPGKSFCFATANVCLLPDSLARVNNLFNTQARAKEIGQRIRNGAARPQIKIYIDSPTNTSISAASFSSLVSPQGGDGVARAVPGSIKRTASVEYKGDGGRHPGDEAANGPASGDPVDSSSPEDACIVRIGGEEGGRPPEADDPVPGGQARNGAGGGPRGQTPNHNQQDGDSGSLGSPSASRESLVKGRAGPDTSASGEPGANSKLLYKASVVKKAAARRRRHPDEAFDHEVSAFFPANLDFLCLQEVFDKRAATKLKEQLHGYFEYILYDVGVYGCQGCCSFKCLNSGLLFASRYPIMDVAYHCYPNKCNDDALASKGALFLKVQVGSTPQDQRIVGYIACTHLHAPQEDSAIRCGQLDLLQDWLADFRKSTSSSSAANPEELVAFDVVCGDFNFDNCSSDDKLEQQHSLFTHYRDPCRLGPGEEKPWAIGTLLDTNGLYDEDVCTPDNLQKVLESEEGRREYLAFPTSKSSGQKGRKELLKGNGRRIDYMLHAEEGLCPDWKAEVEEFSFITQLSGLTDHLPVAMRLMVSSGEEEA

Row | SMILES | pIC50 [1, 9] | pIC50 [1, 10] | other results
1 | CC(=O)N[C@@H]1CCN(c2cc(Cl)nn3cc(C)nc23)C1 [9-PROV] | < 4.00 |  | 
2 | COc1ccc(-c2c(C)nc3c(N4CC[C@@H](NC(C)=O)C4)cc(Cl)nn23)cc1 [11-PROV] | < 4.00 |  | 
3 | COc1cccc(-c2c(C)nc3c(N4CC[C@@H](NC(C)=O)C4)cc(Cl)nn23)c1 [14-PROV] | < 4.00 |  | 
4 | CC(=O)N[C@@H]1CCN(c2ccnn3cc(C)nc23)C1 [15-PROV] | < 5.00 |  | 
5 | CC(=O)N[C@@H]1CCN(c2cc(Cl)nn3c(-c4ccc(F)cc4)c(C)nc23)C1 [18-PROV] | < 4.00 |  | 
6 | CC(=O)Nc1cccc(-c2c(C)nc3c(N4CC[C@@H](NC(C)=O)C4)cc(Cl)nn23)c1 [19-PROV] | < 4.00 |  | 
7 | COc1cccc(-c2c(C)nc3c(N4CC[C@@H](NC(C)=O)C4)cc(C)nn23)c1 [20-PROV] | < 6.00 |  | 
8 | CC(=O)Nc1cccc(-c2c(C)nc3c(N4CC[C@@H](NC(C)=O)C4)cc(C)nn23)c1 [22-PROV] | < 6.00 |  | 
9 | CC(=O)N[C@@H]1CCN(c2cc(C)nn3c(I)c(C)nc23)C1 [23-PROV] | < 5.00 |  | 
10 | COc1ccc(-c2csc3c(N4CC[C@@H](NC(C)=O)C4)nc(Cl)nc23)cc1OC [24-PROV] |  | < 4.00 | 
11 | COc1ccc(-c2c(C)sc3c(N4CC[C@@H](NC(C)=O)C4)nc(Cl)nc23)cc1OC [25-PROV] |  | < 4.00 | 
12 | COc1ccc(-c2scc3c(N4CC[C@@H](NC(C)=O)C4)nc(Cl)nc23)cc1OC [26-PROV] |  | < 4.00 | 
13 | COc1ccc(-c2csc3c(N4CC[C@@H](NC(C)=O)C4)ncnc23)cc1OC [27-PROV] |  | < 4.00 | 
14 | COc1ccc(-c2c(C)sc3c(N4CC[C@@H](NC(C)=O)C4)ncnc23)cc1OC [28-PROV] |  | < 4.00 | 
15 | COc1ccc(-c2c(C)sc3c(N4CC[C@@H](NC(C)=O)C4)nc(C)nc23)cc1OC [29a-PROV] |  | < 4.00 | 
16 | COc1ccc(-c2scc3c(N4CC[C@@H](NC(C)=O)C4)nc(C)nc23)cc1OC [29b-PROV] |  | < 4.00 | 
17 | COc1ccc(-c2csc3c(N4CC[C@@H](NC(C)=O)C4)nc(C)nc23)cc1OC [30-PROV] |  | < 4.00 | 
18 | COc1cc(N2CC[C@@H](NC(C)=O)C2)c2nc(C)c(-c3ccc(OC)c(OC)c3)n2n1 [38-PROV] | < 6.00 |  | 
19 | CC(=O)N[C@@H]1CCN(c2cc(C)nn3c(-c4ccc5c(c4)OCO5)c(C)nc23)C1 [40-PROV] | ≥ 6.00 |  | 
20 | CC(=O)N[C@@H]1CCN(c2cc(C)nn3c(-c4cccc(S(C)(=O)=O)c4)c(C)nc23)C1 [42-PROV] | < 6.00 |  | 
21 | CC(=O)N[C@@H]1CCN(c2cc(C)nn3c(-c4ccc(O)cc4)c(C)nc23)C1 [47-PROV] | ≥ 6.00 |  | 
22 | CC(=O)N[C@@H]1CCN(c2cc(C)nn3c(C)c(C)nc23)C1 [48-PROV] | < 6.00 |  | 
23 | COc1ccc(-c2c(C)nc3c(N4CC[C@@H](NC(=O)C5CCCCC5)C4)cc(C)nn23)cc1 [Entry 31] |  |  | HIV replication (p24 levels in medium) [2]: suppressed HIV-replication; HIV replication (P24 ELISA of culture supernatants) ([3]; listed as MS822 (31)): dose-dependently reduced HIV replication; HIV replication (P24 ELISA of culture supernatants) ([3]; listed as MS882 (31)): suppressed HIV-replication; endolysosomal morphology (electron microscopy) [4]: induced enlarged endolysosomal compartments engorged with EM-dense debris; populations of human CD14+ macrophages ([5]; 10 mg/kg daily I.P. for 6 weeks): selectively decreased populations of CD14+ macrophages; HIV RNAs in tissues (spleen, lung, liver, brain), qRT-PCR for HIV1-p24 [5, 11]: decreased; HIV+ (p24+) macrophages (hCD14+) in spleen, lung, liver, brain [5, 11]: decreased; plasma HIV viral load ([5]; daily intraperitoneal administration, HIV-infected humanized mice): reduced plasma HIV viral load; mice with plasma HIV viral load reduced to below detectable levels ([5]; daily intraperitoneal administration, individual mice): 3 out of 5; multiple ceramides in plasma [6]: decreased elevations of multiple ceramides; HIV replication (p24 levels in medium) [7]: suppressed HIV-replication; luciferase activity in TZM/B1 cells [8]: reduced luciferase activity in TZM/B1 cells at the highest doses tested
